Data as given in paper PMC10974284, “Discovery of Novel 4-Hydroxyquinazoline Derivatives: In Silico, In Vivo and In Vitro Studies Using Primary PARPi-Resistant Cell Lines” (Molecules, 2024).
Like-named read-outs stand apart in the source and are kept apart here.

Experiments:
[1] = tested on: HCC1937 cell lines; assay: MTT cytotoxicity assay, HCC1937; assay type: cell-based, human; conditions: Homo sapiens; for IC50: read-out: IC50 HCC1937
Protocol: (§1) After treatment with target compounds at the different concentrations, MTT was added and the cells were incubated for another 4 h. The IC50 values of the selected compounds were evaluated by the same method. The cells were treated with compounds at different concentrations. The OD values were detected using a microplate reader at 570 nm.

[2] = tested on: HCT-15 cell lines; assay: MTT cytotoxicity assay, HCT-15; assay type: cell-based, human; conditions: Homo sapiens; for IC50: read-out: IC50 HCT-15
Protocol: as §1

[3] = target: T1, PARP1 (Homo sapiens, UniProt P09874); assay: PARP1 enzyme inhibition assay (commercial kit); assay type: biochemical
T1 construct: purchased Sigma-Aldrich 17-10149

[4] = HCC1937, 72 h (3-Days) drug exposure, MTT
[5] = HCT-15, 72 h (3-Days) drug exposure, MTT

T1 sequence (P09874 whole entry): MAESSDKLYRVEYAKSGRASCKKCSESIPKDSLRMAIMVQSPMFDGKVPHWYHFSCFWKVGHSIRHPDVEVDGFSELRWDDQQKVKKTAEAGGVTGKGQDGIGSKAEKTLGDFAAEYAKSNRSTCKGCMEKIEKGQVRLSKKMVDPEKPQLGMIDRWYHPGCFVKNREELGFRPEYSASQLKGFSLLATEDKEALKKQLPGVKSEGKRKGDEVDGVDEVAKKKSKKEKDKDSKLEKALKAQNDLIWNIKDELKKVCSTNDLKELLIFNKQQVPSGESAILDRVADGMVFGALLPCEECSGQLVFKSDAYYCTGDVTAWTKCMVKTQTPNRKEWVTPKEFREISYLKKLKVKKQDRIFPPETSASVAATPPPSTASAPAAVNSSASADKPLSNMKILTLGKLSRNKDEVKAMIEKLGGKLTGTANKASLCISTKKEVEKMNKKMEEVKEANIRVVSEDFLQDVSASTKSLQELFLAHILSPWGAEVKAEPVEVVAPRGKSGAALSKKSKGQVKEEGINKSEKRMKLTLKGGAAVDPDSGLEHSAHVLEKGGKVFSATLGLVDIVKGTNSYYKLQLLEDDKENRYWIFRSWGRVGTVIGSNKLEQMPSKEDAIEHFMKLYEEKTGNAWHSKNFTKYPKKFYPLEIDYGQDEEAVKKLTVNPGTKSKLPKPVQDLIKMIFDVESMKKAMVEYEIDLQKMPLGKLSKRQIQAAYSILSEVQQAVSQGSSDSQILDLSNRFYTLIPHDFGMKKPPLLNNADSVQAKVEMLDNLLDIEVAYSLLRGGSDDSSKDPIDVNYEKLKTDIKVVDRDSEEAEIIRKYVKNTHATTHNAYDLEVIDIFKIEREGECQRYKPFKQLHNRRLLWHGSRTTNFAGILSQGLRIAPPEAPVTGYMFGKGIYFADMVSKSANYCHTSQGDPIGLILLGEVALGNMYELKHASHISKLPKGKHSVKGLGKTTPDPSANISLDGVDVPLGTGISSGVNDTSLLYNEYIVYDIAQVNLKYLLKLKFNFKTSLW

Row | SMILES | melting point [°C] | IC50 [1, 4] [µM] | IC50 [2, 5] [µM] | also measured
1 | O=C(Nc1cccc(C(F)(F)F)c1)N1CCN(Cc2nc3ccccc3c(=O)[nH]2)CC1 [A14, 4-((4-oxo-3,4-dihydroquinazolin-2-yl)methyl)-N-(3-(trifluoromethyl)phenyl)piperazine-1-carboxamide] | 197.8 to 200.3 | 17.7 ± 0.77 | 20 ± 1.15 | –
2 | Cc1ccc(Cl)cc1NC(=O)N1C2CC1CN(Cc1nc3ccc(F)cc3c(=O)[nH]1)C2 [C4, N-(5-chloro-2-methylphenyl)-3-((6-fluoro-4-oxo-3,4-dihydroquinazolin-2-yl)methyl)-3,6-diazabicyclo[3.1.1]heptane-6-carboxamide] | 192.1 to 193.5 | – | – | IC50 ([1]; HCC1937, 72 h): 8.49 ± 0.71 µM; IC50 ([2]; HCT-15, 72 h): 9.84 ± 0.63 µM
3 | COc1ccccc1NC(=O)N1CCN(Cc2nc3ccccc3c(=O)[nH]2)CC1 [A16, N-(2-methoxyphenyl)-4-((4-oxo-3,4-dihydroquinazolin-2-yl)methyl)piperazine-1-carboxamide] | 188.5 to 190.7 | > 50 | 30.7 ± 2.13 | –
4 | O=C(Nc1ccc(F)cc1F)N1CCN(Cc2nc3ccccc3c(=O)[nH]2)CC1 [IN17] | – | 34.3 ± 2.68 | 33.5 ± 1.79 | inhibition at 50 µM ([1]; HCC1937, 50 μM, 72 h, MTT, read-out: Inhibition rate (%) HCC1937): 60.6%; IC50 [3]: 0.4713 ± 0.00318 µM; inhibition at 0.5 µM ([3]; 0.5 μM, read-out: Inhibition rate (%) PARP1): 53.1%; IC50 ([3]; as printed in the text): 0.47 ± 0.0032 µM; inhibition at 50 µM ([2]; HCT-15, 50 μM, 72 h, MTT, read-out: Inhibition rate (%) HCT-15): 63.3%
5 | Cc1ccc(Cl)cc1NC(=O)N1C2CC1CN(Cc1nc3cc(Cl)ccc3c(=O)[nH]1)C2 [C2, N-(5-chloro-2-methylphenyl)-3-((7-chloro-4-oxo-3,4-dihydroquinazolin-2-yl)methyl)-3,6-diazabicyclo[3.1.1]heptane-6-carboxamide] | 192.3 to 194.1 | – | – | IC50 ([1]; HCC1937, 72 h): 32.4 ± 2.66 µM; IC50 ([2]; HCT-15, 72 h): 23 ± 1.93 µM
6 | Cc1ccc(Cl)cc1NC(=O)N1CCN(Cc2nc3ccccc3c(=O)[nH]2)CC1C (stereo not shown) [B2, N-(5-chloro-2-methylphenyl)-2-methyl-4-((4-oxo-3,4-dihydroquinazolin-2-yl)methyl)piperazine-1-carboxamide] | 189.5 to 190.8 | 5.89 ± 0.5 | 6.37 ± 2.83 | –
7 | Cc1ccc2c(=O)[nH]c(CN3CC4CC(C3)N4C(=O)Nc3cc(Cl)ccc3C)nc2c1 [C3, N-(5-chloro-2-methylphenyl)-3-((7-methyl-4-oxo-3,4-dihydroquinazolin-2-yl)methyl)-3,6-diazabicyclo[3.1.1]heptane-6-carboxamide] | 197.7 to 199.3 | – | – | IC50 ([1]; HCC1937, 72 h): 30.1 ± 3.12 µM; IC50 ([2]; HCT-15, 72 h): 28.4 ± 2.87 µM
8 | Cc1ccc(NC(=O)N2CCN(Cc3nc4ccccc4c(=O)[nH]3)CC2)c(F)c1 [A22, N-(2-fluoro-4-methylphenyl)-4-((4-oxo-3,4-dihydroquinazolin-2-yl)methyl)piperazine-1-carboxamide] | 198.4 to 200.7 | > 50 | 21.7 ± 1.16 | –
9 | O=C(Nc1ccccc1C(F)(F)F)N1CCN(Cc2nc3ccccc3c(=O)[nH]2)CC1 [A13, 4-((4-oxo-3,4-dihydroquinazolin-2-yl)methyl)-N-(2-(trifluoromethyl)phenyl) piperazine-1-carboxamide] | 200.1 to 201.2 | > 50 | 20.2 ± 0.78 | –
10 | Cc1c(F)cccc1NC(=O)N1CCN(Cc2nc3ccccc3c(=O)[nH]2)CC1 [A28, N-(3-fluoro-2-methylphenyl)-4-((4-oxo-3,4-dihydroquinazolin-2-yl)methyl)piperazine-1-carboxamide] | 198.9 to 200.6 | > 50 | 30.3 ± 3.3 | –
11 | O=C(Nc1cccc(F)c1F)N1CCN(Cc2nc3ccccc3c(=O)[nH]2)CC1 [A19, N-(2,3-difluorophenyl)-4-((4-oxo-3,4-dihydroquinazolin-2-yl)methyl)piperazine-1-carboxamide] | 188.2 to 189.9 | > 50 | 19.1 ± 0.59 | –
12 | Cc1ccc(Cl)cc1NC(=O)N1C2CC1CN(Cc1nc3cc(F)c(F)cc3c(=O)[nH]1)C2 [C5, N-(5-chloro-2-methylphenyl)-3-((6,7-difluoro-4-oxo-3,4-dihydroquinazolin-2-yl)methyl)-3,6-diazabicyclo[3.1.1]heptane-6-carboxamide] | 194.4 to 195.8 | – | – | IC50 ([1]; HCC1937, 72 h): 55 ± 4.28 µM; IC50 ([2]; HCT-15, 72 h): 29.6 ± 2.16 µM
13 | Cc1cccc(NC(=O)N2CCN(Cc3nc4ccccc4c(=O)[nH]3)CC2)c1F [A21, N-(2-fluoro-3-methylphenyl)-4-((4-oxo-3,4-dihydroquinazolin-2-yl)methyl)piperazine-1-carboxamide] | 200.5 to 202.1 | > 50 | 28.3 ± 1.55 | –
14 | Cc1c(Br)cccc1NC(=O)N1CCN(Cc2nc3ccccc3c(=O)[nH]2)CC1 [A31, N-(3-bromo-2-methylphenyl)-4-((4-oxo-3,4-dihydroquinazolin-2-yl)methyl)piperazine-1-carboxamide] | 200.6 to 202.2 | > 50 | > 50 | –
15 | Cc1ccc(Cl)cc1NC(=O)N1C[C@H]2CC[C@@H](C1)N2Cc1nc2ccccc2c(=O)[nH]1 [B5, (1R,5S)-N-(5-chloro-2-methylphenyl)-8-((4-oxo-3,4-dihydroquinazolin-2-yl)methyl)-3,8-diazabicyclo[3.2.1]octane-3-carboxamide] | 189.5 to 191.7 | – | – | IC50 ([1]; HCC1937, 72 h): 9.61 ± 1.35 µM; IC50 ([2]; HCT-15, 72 h): 11 ± 2.4 µM
16 | Cc1ccc(Cl)cc1NC(=O)N1C2CC1CN(Cc1nc3cc(F)ccc3c(=O)[nH]1)C2 [C1, N-(5-chloro-2-methylphenyl)-3-((7-fluoro-4-oxo-3,4-dihydroquinazolin-2-yl)methyl)-3,6-diazabicyclo[3.1.1]heptane-6-carboxamide] | 193.2 to 195.1 | – | – | IC50 ([1]; HCC1937, 72 h): 9.22 ± 1.19 µM; IC50 ([2]; HCT-15, 72 h): 24.1 ± 2.25 µM
17 | Cc1ccc(F)cc1NC(=O)N1CCN(Cc2nc3ccccc3c(=O)[nH]2)CC1 [A30, N-(5-fluoro-2-methylphenyl)-4-((4-oxo-3,4-dihydroquinazolin-2-yl)methyl)piperazine-1-carboxamide] | 201.1 to 202.8 | 39.5 ± 1.84 | 18.3 ± 0.44 | –

Continued, in another order:

Row | melting point [°C] | SMILES | IC50 [1, 4] [µM] | IC50 [2, 5] [µM] | also measured
18 | 197.8 to 200.2 | Cc1cccc(NC(=O)N2CCN(Cc3nc4ccccc4c(=O)[nH]3)CC2)c1 [A11, 4-((4-oxo-3,4-dihydroquinazolin-2-yl)methyl)-N-(m-tolyl)piperazine-1-carboxamide] | > 50 | 25.6 ± 1.17 | –
19 | 197.7 to 199.5 | Cc1ccc(NC(=O)N2CCN(Cc3nc4ccccc4c(=O)[nH]3)CC2)cc1 [A12, 4-((4-oxo-3,4-dihydroquinazolin-2-yl)methyl)-N-(p-tolyl)piperazine-1-carboxamide] | > 50 | > 50 | –
20 | 203.1 to 204.7 | Cc1ccc(Cl)cc1NC(=O)N1CCN(Cc2nc3ccccc3c(=O)[nH]2)CC1 [A32, N-(5-chloro-2-methylphenyl)-4-((4-oxo-3,4-dihydroquinazolin-2-yl)methyl)piperazine-1-carboxamide] | 11.3 ± 0.73 | 10.9 ± 0.71 | –
21 | 198.8 to 200.6 | O=C(Nc1ccc(C(F)(F)F)cc1)N1CCN(Cc2nc3ccccc3c(=O)[nH]2)CC1 [A15, 4-((4-oxo-3,4-dihydroquinazolin-2-yl)methyl)-N-(4-(trifluoromethyl)phenyl)piperazine-1-carboxamide] | > 50 | 15.6 ± 0.56 | –
22 | 199.5 to 201.1 | Cc1ccc(F)c(NC(=O)N2CCN(Cc3nc4ccccc4c(=O)[nH]3)CC2)c1 [A23, N-(2-fluoro-5-methylphenyl)-4-((4-oxo-3,4-dihydroquinazolin-2-yl)methyl)piperazine-1-carboxamide] | 44.2 ± 3.47 | 26 ± 1.67 | –
23 | 196.7 to 198.7 | Cc1ccc(Cl)c(NC(=O)N2CCN(Cc3nc4ccccc4c(=O)[nH]3)CC2)c1 [A27, N-(2-chloro-5-methylphenyl)-4-((4-oxo-3,4-dihydroquinazolin-2-yl)methyl)piperazine-1-carboxamide] | 17.5 ± 0.66 | 25.4 ± 1.48 | –
24 | 189.5 to 192.1 | O=C(Nc1cccc(F)c1)N1CCN(Cc2nc3ccccc3c(=O)[nH]2)CC1 [A2, N-(3-fluorophenyl)-4-((4-oxo-3,4-dihydroquinazolin-2-yl)methyl)piperazine-1-carboxamide] | > 50 | 34.9 ± 2.23 | –
25 | 186.3 to 188.5 | COc1cccc(NC(=O)N2CCN(Cc3nc4ccccc4c(=O)[nH]3)CC2)c1 [A17, N-(3-methoxyphenyl)-4-((4-oxo-3,4-dihydroquinazolin-2-yl)methyl)piperazine-1-carboxamide] | > 50 | > 50 | –
26 | 189.8 to 191.4 | O=C(Nc1ccc(Cl)cc1)N1CCN(Cc2nc3ccccc3c(=O)[nH]2)CC1 [A6, N-(4-chlorophenyl)-4-((4-oxo-3,4-dihydroquinazolin-2-yl)methyl)piperazine-1-carboxamide] | > 50 | 21.4 ± 0.86 | –
